The values that follow come from patent US20230123334A1, “AMINO LIPID COMPOUND, PREPARATION METHOD THEREFOR, AND APPLICATION THEREOF” (SHENZHEN SHENXIN BIOTECHNOLOGY CO., LTD., priority 2020, published 2023).

For the first assay, the system named is HEK293 cells. Put plainly: Preliminary screening as DNA vectors, GFP transfection of HEK293 cells. The assay is classed as cell-based. Particulars: HEK293 cells; lipid/DOPE liposome with 75 ng plasmid DNA (psin-EGFP-IRES-Puro); number of cells expressing GFP divided by total number of nuclei (Hoechst). In short, it runs like this:
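HEK293 cells in DMEM/10% FBS transfected with 75 ng EGFP plasmid per well complexed with amino lipid/DOPE liposomes in pH 5.6 sodium acetate. Hoechst nuclear stain added 20-24 h post-transfection, then cells cultured another 20-24 h. Confocal imaging gives GFP-positive cells as % of total nuclei.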
`CCCCCCCCCCCCCCCCNc1nc(NCCCCCCCCCCCCCCCC)nc(NCCCN(C)C)n1` [Compound N16N16D6]: the “Absolute DNA transfection efficiency in HEK293 cells” value (from here on “Absolute DNA transfection efficiency”) was determined as 0.9%.

In the case of `CCCCCCCCCCCCCCCCNc1nc(NCCCCCCCCCCCCCCCC)nc(NCCN(CC)CC)n1` [Compound N16N16D7], the “Absolute DNA transfection efficiency” value is reported as 0.0%.

On to `CCCCCCCCCCCCCCCCNc1nc(NCCCCCCCCCCCCCCCC)nc(NCCCN2CCOCC2)n1` [Compound N16N16D8], for which the “Absolute DNA transfection efficiency” value came out at 0.5%.

As to `CCCCCCCCCCCCCCCCNc1nc(NCCCCCCCCCCCCCCCC)nc(NCCCN2CCN(C)CC2)n1` [Compound N16N16D9], the “Absolute DNA transfection efficiency” value is given as 1.9%.

As to `CCCCCCCCCCCCCCCCNc1nc(NCCCCCCCCCCCCCCCC)nc(NCC2CCN(C)CC2)n1` [Compound N16N16D10], the “Absolute DNA transfection efficiency” value came to 0.0%.

Consider `CCCCCCCCCCCCCCCCCCNc1nc(NCCCCCCCCCCCCCCCC)nc(NCCN(C)C)n1` [Compound N16N18D1], for which the “Absolute DNA transfection efficiency” value was found to be 1.2%.

For `CCCCCCCCCCCCCCCCCCNc1nc(NCCCCCCCCCCCCCCCC)nc(NCCN2CCOCC2)n1` [Compound N16N18D2], the “Absolute DNA transfection efficiency” value is on record as 1.2%.

Regarding `CCCCCCCCCCCCCCCCCCNc1nc(NCCCCCCCCCCCCCCCC)nc(NCCN2CCCC2)n1` [Compound N16N18D3], the “Absolute DNA transfection efficiency” value was 0.4%.

Consider `CCCCCCCCCCCCCCCCCCNc1nc(NCCCCCCCCCCCCCCCC)nc(NCCN2CCCCC2)n1` [Compound N16N18D4], for which the “Absolute DNA transfection efficiency” value came to 0.6%.

With `CCCCCCCCCCCCCCCCCCNc1nc(NCCCCCCCCCCCCCCCC)nc(NCCN2CCN(C)CC2)n1` [Compound N16N18D5], the “Absolute DNA transfection efficiency” value turned out to be 1.1%.

In the case of `CCCCCCCCCCCCCCCCCCNc1nc(NCCCCCCCCCCCCCCCC)nc(NCCCN(C)C)n1` [Compound N16N18D6], the “Absolute DNA transfection efficiency” value was 0.0%.

For the molecule `CCCCCCCCCCCCCCCCCCNc1nc(NCCCCCCCCCCCCCCCC)nc(NCCN(CC)CC)n1` [Compound N16N18D7], the “Absolute DNA transfection efficiency” value worked out at 0.0%.

With `CCCCCCCCCCCCCCCCCCNc1nc(NCCCCCCCCCCCCCCCC)nc(NCCCN2CCOCC2)n1` [Compound N16N18D8], the “Absolute DNA transfection efficiency” value is 0.0%.

As for `CCCCCCCCCCCCCCCCCCNc1nc(NCCCCCCCCCCCCCCCC)nc(NCCCN2CCN(C)CC2)n1` [Compound N16N18D9], the “Absolute DNA transfection efficiency” value is listed as 0.0%.

`CCCCCCCCCCCCCCCCCCNc1nc(NCCCCCCCCCCCCCCCC)nc(NCC2CCN(C)CC2)n1` [Compound N16N18D10]: the “Absolute DNA transfection efficiency” value came out at 3.0%.

With `CCCCCCCCCCCCCCCCCCNc1nc(NCCCCCCCCCCCCCCCCCC)nc(NCCN(C)C)n1` [Compound N18N18D1], the “Absolute DNA transfection efficiency” value is given as 1.9%.

As for `CCCCCCCCCCCCCCCCCCNc1nc(NCCCCCCCCCCCCCCCCCC)nc(NCCN2CCOCC2)n1` [Compound N18N18D2], the “Absolute DNA transfection efficiency” value was 0.0%.

With `CCCCCCCCCCCCCCCCCCNc1nc(NCCCCCCCCCCCCCCCCCC)nc(NCCN2CCCC2)n1` [Compound N18N18D3], the “Absolute DNA transfection efficiency” value was determined as 2.0%.

On to `CCCCCCCCCCCCCCCCCCNc1nc(NCCCCCCCCCCCCCCCCCC)nc(NCCN2CCCCC2)n1` [Compound N18N18D4], for which the “Absolute DNA transfection efficiency” value is 0.9%.

As for `CCCCCCCCCCCCCCCCCCNc1nc(NCCCCCCCCCCCCCCCCCC)nc(NCCN2CCN(C)CC2)n1` [Compound N18N18D5], the “Absolute DNA transfection efficiency” value is listed as 1.1%.

The test system of a further assay is HEK293 cells. Kind of assay: Preliminary screening as mRNA vectors, EGFP mRNA transfection of HEK293 cells. The assay is classed as cell-based. The conditions noted are these: HEK293 cells, 96-well plates, EGFP mRNA 50 ng per well; percentage of GFP fluorescent cells relative to total number of cells (Hoechst). The method, boiled down: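 HEK293 cells in DMEM plus 10% FBS transfected in 96-well format with 50 ng EGFP mRNA per well; Lipofectamine2000 served as positive control. Read-out is the percentage of GFP-fluorescent cells among total cells, counted by Hoechst nuclear stain.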
With `CCCCCCCCCCCCCCCCNc1nc(NCCCCCCCCCCCCCCCC)nc(NCCCN(C)C)n1` [Compound N16N16D6], the “Absolute mRNA transfection efficiency in HEK293 cells” value (“Absolute mRNA transfection efficiency” below) is 0.0%.

Consider `CCCCCCCCCCCCCCCCNc1nc(NCCCCCCCCCCCCCCCC)nc(NCCN(CC)CC)n1` [Compound N16N16D7], for which the “Absolute mRNA transfection efficiency” value was 7.9%.

With `CCCCCCCCCCCCCCCCNc1nc(NCCCCCCCCCCCCCCCC)nc(NCCCN2CCOCC2)n1` [Compound N16N16D8], the “Absolute mRNA transfection efficiency” value is given as 1.6%.

As for `CCCCCCCCCCCCCCCCNc1nc(NCCCCCCCCCCCCCCCC)nc(NCCCN2CCN(C)CC2)n1` [Compound N16N16D9], the “Absolute mRNA transfection efficiency” value was determined as 0.0%.

In the case of `CCCCCCCCCCCCCCCCNc1nc(NCCCCCCCCCCCCCCCC)nc(NCC2CCN(C)CC2)n1` [Compound N16N16D10], the “Absolute mRNA transfection efficiency” value worked out at 0.0%.

Consider `CCCCCCCCCCCCCCCCCCNc1nc(NCCCCCCCCCCCCCCCC)nc(NCCN(C)C)n1` [Compound N16N18D1], for which the “Absolute mRNA transfection efficiency” value worked out at 0.0%.

As for `CCCCCCCCCCCCCCCCCCNc1nc(NCCCCCCCCCCCCCCCC)nc(NCCN2CCOCC2)n1` [Compound N16N18D2], the “Absolute mRNA transfection efficiency” value was 0.0%.

As for `CCCCCCCCCCCCCCCCCCNc1nc(NCCCCCCCCCCCCCCCC)nc(NCCN2CCCC2)n1` [Compound N16N18D3], the “Absolute mRNA transfection efficiency” value amounted to 20.8%.

In the case of `CCCCCCCCCCCCCCCCCCNc1nc(NCCCCCCCCCCCCCCCC)nc(NCCN2CCCCC2)n1` [Compound N16N18D4], the “Absolute mRNA transfection efficiency” value is listed as 1.8%.

Regarding `CCCCCCCCCCCCCCCCCCNc1nc(NCCCCCCCCCCCCCCCC)nc(NCCN2CCN(C)CC2)n1` [Compound N16N18D5], the “Absolute mRNA transfection efficiency” value is 0.0%.

As for `CCCCCCCCCCCCCCCCCCNc1nc(NCCCCCCCCCCCCCCCC)nc(NCCCN(C)C)n1` [Compound N16N18D6], the “Absolute mRNA transfection efficiency” value was 4.4%.

As for `CCCCCCCCCCCCCCCCCCNc1nc(NCCCCCCCCCCCCCCCC)nc(NCCN(CC)CC)n1` [Compound N16N18D7], the “Absolute mRNA transfection efficiency” value is recorded as 0.0%.

`CCCCCCCCCCCCCCCCCCNc1nc(NCCCCCCCCCCCCCCCC)nc(NCCCN2CCOCC2)n1` [Compound N16N18D8]: the “Absolute mRNA transfection efficiency” value stood at 1.0%.

Turning to `CCCCCCCCCCCCCCCCCCNc1nc(NCCCCCCCCCCCCCCCC)nc(NCCCN2CCN(C)CC2)n1` [Compound N16N18D9], the “Absolute mRNA transfection efficiency” value turned out to be 0.0%.

In the case of `CCCCCCCCCCCCCCCCCCNc1nc(NCCCCCCCCCCCCCCCC)nc(NCC2CCN(C)CC2)n1` [Compound N16N18D10], the “Absolute mRNA transfection efficiency” value was 1.8%.

As for `CCCCCCCCCCCCCCCCCCNc1nc(NCCCCCCCCCCCCCCCCCC)nc(NCCN(C)C)n1` [Compound N18N18D1], the “Absolute mRNA transfection efficiency” value was found to be 2.2%.

Regarding `CCCCCCCCCCCCCCCCCCNc1nc(NCCCCCCCCCCCCCCCCCC)nc(NCCN2CCOCC2)n1` [Compound N18N18D2], the “Absolute mRNA transfection efficiency” value turned out to be 0.0%.

Regarding `CCCCCCCCCCCCCCCCCCNc1nc(NCCCCCCCCCCCCCCCCCC)nc(NCCN2CCCC2)n1` [Compound N18N18D3], the “Absolute mRNA transfection efficiency” value came to 40.0%.

With `CCCCCCCCCCCCCCCCCCNc1nc(NCCCCCCCCCCCCCCCCCC)nc(NCCN2CCCCC2)n1` [Compound N18N18D4], the “Absolute mRNA transfection efficiency” value amounted to 0.0%.

With `CCCCCCCCCCCCCCCCCCNc1nc(NCCCCCCCCCCCCCCCCCC)nc(NCCN2CCN(C)CC2)n1` [Compound N18N18D5], the “Absolute mRNA transfection efficiency” value came to 0.0%.
